Data as given in US10329309B2, “3-(3H-imidazo[4,5-B]pyridin-2-yl)-1H-pyrazolo[4,3-B]pyridines and therapeutic uses thereof” (Samumed, LLC, priority 2015, dated 2019).

Tests used:
Format in all cases: cell-based
SW480 colon cancer cells = experiment: Cell viability assay (CellTiter-Blue), four days; conditions: Homo sapiens, 96 h, CellTiter-Blue cell viability
Method: Representative compounds were screened using the following assay procedure to assess the effect on cell viability as described below.
Each compound was dissolved in DMSO as a 10 mM stock and used to prepare compound source plates. Serial dilution (1:3, 8-point dose-response curves from 10 μM to 0.0045 μM) and compound transfer was performed using the ECHO 550 (Labcyte, Sunnyvale, Calif.) into 96-well clear bottom, black-walled plates (Corning-Costar).
Approximately 2×10^3 SW480 colon cancer cells were seeded into each well and allowed to incubate in the presence or absence of compound for four days at 37° C./5% CO2. Eight replicates of DMSO-treated cells served as controls and cells treated with compound were performed in duplicate.
After incubation, 20 μL of CellTiter-Blue (Promega) was added to each well allowed to incubate for approximately 3 hours. This reagent was a buffered solution which contains resazurin, metabolically active cells were able to reduce rezarurin (blue) into resorufin (pink) which was highly fluorescent. This measured fluorescence was used as a readout for cell viability.
After incubation, the plates were read at Ex 560 nm Em 590 nm (Cytation 3, BioTek). Dose-response curves were generated and EC50 concentration values were calculated using non-linear regression curve fit in the GraphPad Prism (San Diego, Calif.) or Dotmatics' Studies Software (Bishops Stortford, UK). For EC50 of >10 μM, the percent inhibition at 10 μM is provided.

[1] = test system: Wnt activity (Sp5-Luc reporter, SW480 colon carcinoma cells); experiment: Screening assay for Wnt activity: Sp5-Luc reporter gene assay in SW480 cells; conditions: Homo sapiens, overnight incubation, 10-point dose-response from 10 μM
Excerpt: The screening assay for Wnt activity is described as follows. Reporter cell lines can be generated by stably transducing cancer cell lines (e.g., colon cancer) or primary cells (e.g., IEC-6 intestinal cells) with a lentiviral construct that includes a Wnt-responsive promoter driving expression of the firefly luciferase gene.
SW480 colon carcinoma cells were transduced with a lentiviral vector expressing luciferase with a human Sp5 promoter consisting of a sequence of eight TCF/LEF binding sites. SW480 cells stably expressing the Sp5-Luc reporter gene and a hygromycin resistance gene were selected by treatment with 150 μg/mL of hygromycin for 7 days. These stably transduced SW480 cells were expanded in cell culture and used for all further screening activities. Each compound was dissolved in DMSO as a 10 mM stock and used to prepare compound source plates. Serial dilution (1:3, 10-point dose-response curves starting from 10 μM) and compound transfer was performed using the ECHO 550 (Labcyte, Sunnyvale, Calif.) into 384-well white solid bottom assay plates (Greiner Bio-One) with appropriate DMSO backfill for a final DMSO concentration of 0.1%. For Sp5-Luc reporter gene assays, the cells were plated at 4,000 cells/well in 384-well plates with medium containing 1% fetal bovine serum and incubated overnight at 37° C. and 5% CO2. Following incubation, 20 μl of BrightGlo luminescence reagent (Promega) was added to each well of the 384-well assay plates. The plates were placed on an orbital shaker for 2 min and then luminescence was quantified using the Envision (Perkin Elmer) plate reader. Readings were normalized to DMSO only treated cells, and normalized activities were utilized for EC50 calculations using the dose-response log (inhibitor) vs. response -variable slope (four parameters) nonlinear regression feature available in GraphPad Prism 5.0 (or Dotmatics). For EC50 of >10 μM, the percent inhibition at 10 μM is provided.

IL-6 (THP-1 cells) = experiment: Inhibition of IL-6 in LPS-stimulated THP-1 monocytes (HTRF); conditions: Homo sapiens, LPS 500 ng/mL, IL-6 by HTRF
Method: Human monocyte cell line (THP-1 cells; Catalog # TIB-202, ATCC, Manassas, Va.) were cultured in Roswell Park Memorial Institute (RPMI) 1640 Medium (Catalog #21870-100, Buffalo, N.Y.) with 1% L-glutamine, 1% HEPES, 1% Sodium Pyruvate, 2% Sodium Bicarbonate supplemented with 100 units/mL penicillin, 50 μg/mL streptomycin, 2-mercaptoethanol (0.05 mM) [basal medium] and 10% fetal bovine serum (Catalog #16140089, Life Technologies, Carlsbad, Calif.) at 37° C. and 5% CO2.
THP-1 cells were cultured in basal media with 1% FBS for 24 hours before the start of the assay. Each compound was dissolved in DMSO as a 10 mM stock and used to prepare compound source plates. Serial dilution (1:3, 10-point dose-response curves starting from 10 μM) and compound transfer was performed using the ECHO 550 (Labcyte, Sunnyvale, Calif.) into 384-well white low volume assay plates (Greiner Bio-One) with appropriate DMSO backfill for a final DMSO concentration of 0.1%. THP-1 cells were plated at 5000 cells/well in the 384-well plates and incubated at 37° C. for 2 h. 500 ng/mL of LPS was added after 2 hours and cells were incubated for another 22 hours at 37° C. Plates were spun in a centrifuge for 1 minute at […] and a mixture of anti-IL6 XL665, and anti-IL6 Cryptate diluted in reconstitution buffer (Cisbio Inc.) was added to each well. Following incubation for 3 hrs at room temperature, Homogeneous Time-Resolved Fluorescence (HTRF) was measured using the Envision (Perkin Elmer) at 665 nm and […]. The ratio of fluorescence at 665 nm to 620 nm was used as a readout for IL6 quantification. All samples were processed in duplicate. Readings were normalized to DMSO treated cells and normalized activities were utilized for EC50 calculations using the dose-response log (inhibitor) vs. response -variable slope (four parameters) nonlinear regression feature available in GraphPad Prism 5.0 (or Dotmatics). For EC50 of >10 μM, the percent inhibition at 10 μM is provided.

[2] = test system: primary human fibroblasts derived from IPF patients (LL29 cells), α-smooth muscle actin (αSMA); experiment: Inhibition of the fibrotic process: TGF-β1-treated primary human fibroblasts from IPF patients, αSMA staining; conditions: Fibroblast, 96 h, LL29 fibroblasts from IPF patients, TGF-β1 20 ng/mL, 4 days, inhibition of fibrotic process
Excerpt: Representative compounds were screened using primary human fibroblasts (derived from IPF patients) treated with TGF-β1 to determine their ability to inhibit the fibrotic process.
Primary human fibroblasts derived from IPF patients (LL29 cells) [^1Xiaoqiu Liu, et. al., “Fibrotic Lung Fibroblasts Show Blunted Inhibition by cAMP Due to Deficient cAMP Response Element-Binding Protein Phosphorylation”, Journal of Pharmacology and Experimental Therapeutics (2005), 315(2), 678-687; ^2Watts, K. L., et. al., “RhoA signaling modulates cyclin D1 expression in human lung fibroblasts; implications for idiopathic pulmonary fibrosis”, Respiratory Research (2006), 7(1), 88] were obtained from American Type Culture Collection (ATCC) and expanded in F12 medium supplemented with 15% Fetal Bovine Serum and Penicillin/Streptomycin.
Each compound was dissolved in DMSO as a 10 mM stock and used to prepare compound source plates. Serial dilution (1:2, 11-point dose-response curves from 10 μM to 1.87 nM) and compound transfer was performed using the ECHO 550 (Labcyte, Sunnyvale, Calif.) into 384-well clear bottom assay plates (Greiner Bio-One) with appropriate DMSO backfill for a final DMSO concentration of 0.1%. LL29 cells are plated at 1,500 cells/well in 80 μL/well F12 medium supplemented with 1% Fetal Bovine Serum. One hour after addition of the cells, TGF-β1 (Peprotech; 20 ng/mL) was added to the plates to induce fibrosis (ref. 1 and 2 above). Wells treated with TGF-β1 and containing DMSO were used as controls. Cells were incubated at 37° C. and 5% CO2 for 4 days. Following incubation for 4 days, SYTOX green nucleic acid stain (Life Technologies [Thermo Fisher Scientific]) was added to the wells at a final concentration of 1 μM and incubated at room temperature for 30 min. Cells were then fixed using 4% formaldehyde (Electron Microscopy Sciences), washed 3 times with PBS followed by blocking and permeabilization using 3% Bovine Serum Albumin (BSA; Sigma) and 0.3% Triton X-100 (Sigma) in PBS. Cells were then stained with antibody specific to α-smooth muscle actin (αSMA; Abcam) (ref. 1 and 2 above) in 3% Bovine Serum Albumin (BSA; Sigma) and 0.3% Triton X-100 (Sigma) in PBS, and incubated overnight at 4° C. Cells were then washed 3 times with PBS, followed by incubation with Alexa Flor-647 conjugated secondary antibody (Life Technologies [Thermo Fisher Scientific]) and DAPI at room temperature for 1 hour. Cells were then washed 3 times with PBS and plates were sealed for imaging. αSMA staining was imaged by excitation at 630 nm and emission at 665 nm and quantified using the Compartmental Analysis program on the CellInsight CX5 (Thermo Scientific). Dead or apoptotic cells were excluded from analysis based on positive SYTOX green staining. % of total cells positive for αSMA were counted in each well and normalized to the average of 11 wells treated with TGF-β1 on the same plate using Dotmatics' Studies Software. The normalized averages (fold change over untreated) of 3 replicate wells for each compound concentration were used to create dose-responses curves and EC50 values were calculated using non-linear regression curve fit in the Dotmatics' Studies Software. For EC50 of >10 μM, the percent inhibition at 10 μM is provided.

Row | Compound | EC50 (SW480 colon cancer cells) [nM] | EC50 [1] [nM] | EC50 (IL-6 (THP-1 cells)) [nM] | EC50 [2] [nM]
1 | c1ccc(-c2ccc3[nH]nc(-c4nc5cccnc5[nH]4)c3n2)nc1 [Compound 280, 3-(3H-Imidazo[4,5-b]pyridin-2-yl)-5-(pyridin-2-yl)-1H-pyrazolo[4,3-b]pyridine] | 2290 | 687 | 115 | 3880
2 | Fc1ccccc1-c1ccnc2[nH]c(-c3n[nH]c4ccc(-c5cncc(CNCC6CCCC6)c5)nc34)nc12 [Compound 81, 1-Cyclopentyl-N-((5-(3-(7-(2-fluorophenyl)-3H-imidazo[4,5-b]pyridin-2-yl)-1H-pyrazolo[4,3-b]pyridin-5-yl)pyridin-3-yl)methyl)methanamine] | 2640 | 1120 | 5760 | 1600
3 | c1cc(-c2ccoc2)c2nc(-c3n[nH]c4ccc(-c5cncc(CNCC6CCCC6)c5)nc34)[nH]c2n1 [Compound 333, 1-Cyclopentyl-N-((5-(3-(7-(furan-3-yl)-3H-imidazo[4,5-b]pyridin-2-yl)-1H-pyrazolo[4,3-b]pyridin-5-yl)pyridin-3-yl)methyl)methanamine] | 2590 | 2720 | 2620 | 1420
